The values below are quoted from earlier work in US20080279914A1, “Transdermal composition comprising piroxicam-inorganic material complex and patch system comprising the same” (priority 2006, published 2008).

The conditions of this data set: orally administered.

Structures are written as SMILES.

As to `CN1C(C(=O)Nc2ccccn2)=C(O)c2ccccc2S1(=O)=O` [piroxicam], the “drug discharged unchanged in the urine” value is given as “less than 5%”.
